Experimental data reported in patent US20220313626A1, “SMALL MOLECULE INHIBITORS FOR TREATING CANCER IN A SUBJECT HAVING TUMORS WITH HIGH INTERSTITIAL PRESSURE” (GUANGZHOU MAXINOVEL PHARMACEUTICALS CO., LTD., priority 2019, published 2022).

Tested on: 4T1 tumor cells
Assay: Anti-tumor efficacy in the subcutaneous 4T1 murine breast cancer model in BALB/c mice
Type: in vivo
Settings: 4T1, BALB/c mice; for TGI / Tumor Volume: PO, BID, 20 days
Procedure: Materials required for the experiment: Antibody: mouse PD-1 antibody, Product specifications: 7.09 mg/mL (50 mg/mL), Lot No.: 695318A1 purchased from BioXcell, storage at 4 °C. Experiment animal: 60 BALB/C mice, female, 6˜8 weeks old, 20˜23 g, purchased from Shanghai Lingchang Biotechnology Co, Ltd. Formulation material: castor oil (Cremophor RH40), CAS No.: 61788-85-0, Lot No.: 29761847G0, purchased from Shanghai Xietai Chemical Co. Ltd.; β-cyclodextrin (SBE-β-CD), CAS No.:128446-35-5, Lot No.: 20180110, purchased from Shanghai Shaoyuan Chemical Co. Ltd.; RPMI-1640 culture medium, Art. No.: 1869036, Lot No.:11875-093, purchased from Gibco Co. Ltd.; PBS, Art. No.: SH30256.01, Lot No.: AB10141338, purchased from HyClone Co. Ltd.; Fetal bovine serum: CAS No.: 10099-141, Lot No.: 1966174C, purchased from Gibco Co. Ltd.
Cell preparation and implantation: 4T1 cells (CRL-2539™) were cultured with RPMI 1640 supplemented with 10% heat inactivated FBS at 37° C. in 5% CO2 incubator. Cells were passaged 3 times a week. Cells were harvested, counted and passaged, inoculated when around 70% confluent.
Tumor cell inoculation and group administration: The 50 uL cell suspension containing 1×10^5 4T1 tumor cells (cells suspended in base RPMI-1640 medium) was inoculated into the fourth fat pad of the left abdomen of mice. On the second day after inoculation, according to the order of tumor inoculation, stratified randomization was used to group and start the administration on the day of grouping.
Preparation of test substances: Preparation of formulation: 490 mL of sterile water was added into the volumetric flask with magnetic stirring to have a vortex. 100 g of castor oil (Cremophor RH40) was added with a spoon slowly into the vortex and the solution was kept stirring. 200 g of β-cyclodextrin (SBE-β-CD) was added while the solution was kept stirring until the solution was clear, and the total volume was set to 1000 mL, which contained 10% (w/v) Cremophor RH40+20% (w/v) an aqueous solution of SBE-β-CD.
Preparation of Compound Suspension: 178.88 mg compound was weighed and 14.817 mL 10% (w/v) Cremophor RH40+20% (w/v) SBE-β-CD aqueous solution were added. The suspension solution with a concentration of 12.0 mg/mL was obtained by fully mixing with magnetic stirring. 7.0 mL of the compound suspension solution with concentration of 12.0 mg/mL was pipetted and 7.0 mL aqueous formulation solution was added. The suspension solution with a concentration of 6.0 mg/mL was obtained by fully mixing with magnetic stirring, 7.0 mL of the compound suspension solution with concentration of 6.0 mg/mL was pipetted and 7.0 mL aqueous formulation solution was added. The suspension solution with a concentration of 3.0 mg/mL was obtained by fully mixing with magnetic stirring. 7.0 mL of the compound suspension solution with concentration of 3.0 mg/mL was pipetted and 7.0 mL aqueous formulation solution was added. The suspension solution with a concentration of 1.5 mg/mL was obtained by fully mixing with magnetic stirring. The compound suspension solution was prepared once a day.
Preparation of mPD-1 Antibody: 0.339 mL mPD-L1 antibody (7.09 mg/mL) original solution was pipetted and 2.061 mL PBS solution was added. The solution was fully mixed and the final concentration of 1 mg/mL solution was obtained.
Procedure: The mice in the vehicle group were weighed and recorded in the electronic balance according to their numbers. The mice in the vehicle group were given prepared formulation solution twice a day by oral administration according to their body weight with a capacity of 0.1 mL/10 g. Each mouse spent about 20 seconds and 10 mice in each group shared for about 5 minutes.
The mice in the antibody (10 mg/kg) group were weighed and recorded in the electronic balance according to their numbers. The mice in the antibody group were given prepared antibody solution twice a week by IP administration according to their body weight with a capacity of 0.1 ml/10 g. […]

Cc1c(/C=C/c2cc(CN[C@@](C)(CO)C(=O)O)ccc2C(F)(F)F)cccc1-c1ccccc1 [Compound]
TGI (15 mg/kg): 19.96% | Tumor Volume (15 mg/kg): 689.03 ± 43.97 mm^3 | TGI (30 mg/kg): 33.34% | Tumor Volume (30 mg/kg): 573.9 ± 43.18 mm^3 | TGI (60 mg/kg): 36.32% | Tumor Volume (60 mg/kg): 548.24 ± 31.39 mm^3 | TGI (120 mg/kg): 41.55% | Tumor Volume (120 mg/kg): 503.16 ± 32.93 mm^3 | minimum effective dose (p<0.05): 30 mpk
